Measured values: PubChem BioAssay AID179 (DTP/NCI, 2004)
Values joined by “and” are separate entries in the source; they are usually repeats but may differ in a detail not shown here. Identical values can stand only once. Active and inactive are the calls of the source.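 Rule for the calls: active = compounds giving half or more protection of infected cells from virus-caused growth loss, again on retest; inactive = the rest.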

Tested on: CEM cells HIV-1 protection, formazan growth assay
Assay: NCI AIDS Antiviral Assay
Details: for IC50: measured here: growth of uninfected CEM cells
Outline: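 CEM (human) cells, HIV-1 infected vs uninfected, 5-point dosing, formazan growth read-out. Retest threshold 50% protection.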

| SMILES | EC50 | IC50 | outcome |
| --- | --- | --- | --- |
| O=C(c1cccc(C(=O)c2ccc3c4c(cccc24)C(=O)N(c2ccccc2)C3=O)c1)c1ccc2c3c(cccc13)C(=O)N(c1ccccc1)C2=O | > 200 µM | > 200 µM | – |
| CCC1(c2ccccc2)NC(=O)N(C)C1=O (centres undefined) | > 200 µM | > 200 µM | – |
| Clc1ccc2c(Cl)ncnc2c1I | > 30.9 µM | 7.41 µM | – |
| COc1cc2ccc(CC(=O)O)cc2cc1OC | – | – | inactive |
| CC(C)(C)NCc1c(C(=O)NCCO)[n+](=O)c2ccccc2n1[O-] | > 75.9 µM | > 75.9 µM | – |
| Cc1nc2cc(N)c(Cl)cc2[nH]1 | > 200 µM | > 200 µM | – |
| CSc1c2c([nH]c(=O)c1C#N)-c1ccccc1CC2 | > 200 µM | 166 µM | – |
| C1SCSCS1 | > 200 µM | > 200 µM | – |
| CCOC(=O)c1nc2ccc(C(F)(F)F)cc2nc1Oc1ccc(C#N)cc1 | > 200 µM | > 200 µM | – |
| O=c1[nH]c(Nc2nc3ccccc3[nH]2)nc(O)c1Cc1ccccc1 | > 151 µM | > 151 µM | – |
| O=c1oc2ccccc2c(-c2ccc(O)cc2)c1Oc1ccccc1 | > 200 µM | 20 µM | – |
| Cc1cc(C)c(COC(=O)NS(=O)(=O)Nc2ccccc2)c(C)c1 | > 200 µM | 43.7 µM | – |
| Cn1cc(C(=O)c2ccccc2)ccc1=O | > 617 µM | 479 µM | – |
| N=c1c2ccccc2c2ccccc2n1O | > 200 µM | > 100 µM | – |
| NCP(=O)(O)OCC(=O)O | – | – | inactive |
| Oc1ccc2ccccc2c1Br | > 200 µM | 162 µM | – |
| O=C(O)C[C@@H]1C(=O)OC2C3COC(=O)c4cc(O)c(O)c(O)c4-c4c(cc(O)c(O)c4O)C(=O)OC2C(OC(=O)c2cc(O)c(O)c4c2C1[C@H](O)C(=O)O4)C(OC(=O)c1cc(O)c(O)c(O)c1)O3 (some centres undefined) | 2.63 µM | 12.9 µM | – |
| O=c1c(Cc2ccccc2)c(O)cc2n1CCC2 | > 148 µM | > 148 µM | – |
| CCOC(=O)c1c2ccc(/C=C/c3ccccn3)ccc-2c(C(=O)OCC)c1N | > 6.76 µM | > 6.76 µM | – |
| COC(=O)C1(Cc2ccccc2)Cc2cc3c(cc2C1=O)CCC3 (centres undefined) | > 200 µM | 85.1 µM | – |
| O=c1cc(-c2ccccc2)[nH]c2nccn12 | > 200 µM | > 200 µM | – |
| O=C(CP(=O)(O)O)NC(CC(=O)OCc1ccccc1)C(=O)OCc1ccccc1 (centres undefined) | > 100 µM | > 100 µM | – |
| O=c1/c(=C\c2ccccc2)sc2n1C(c1ccccc1)C1(O)CCCCC1N=2 (centres undefined) | > 200 µM | 60.3 µM | – |

| SMILES | EC50 | IC50 | outcome |
| --- | --- | --- | --- |
| O=C(OCCN=C1c2ccccc2CCc2ccccc21)c1ccccc1 | > 200 µM | > 200 µM | – |
| CC(=O)OCC1OC(N2C(c3ccccc3)=CC(c3ccco3)C(C#N)=C2S)C(OC(C)=O)C(OC(C)=O)C1OC(C)=O (centres undefined) | 178 µM | > 200 µM | – |
| CN(C)CCOC1(Cc2ccc(F)cc2)CCC(C(C)(C)C)CC1 (centres undefined) | > 200 µM | 3.89 µM and 3.98 µM | – |
| CN1c2ccccc2N(C)C2C1N(C)c1ccccc1N2C (centres undefined) | > 64.6 µM | 11 µM | – |
| O=C(O)C1CCN1Cc1ccc2ccccc2c1O (centres undefined) | > 200 µM | 195 µM | – |
| CC(=O)/C=C/c1cc([N+](=O)[O-])ccc1O | > 200 µM | 36.3 µM | – |
| COC(=O)C1=CC(=O)OC1(OO)c1ccccc1 (centres undefined) | > 200 µM | 45.7 µM | – |
| Cc1cc(=O)n(-c2ccccc2)c(=S)n1-c1nc2ccccc2[nH]1 | > 107 µM | 63.1 µM | – |
| O=C(c1nc2cc([N+](=O)[O-])ccc2[nH]c1=O)C(O)c1ccco1 (centres undefined) | > 200 µM | 61.7 µM | – |
| Cc1nc(CC2C(CO[Si](C)(C)C(C)(C)C)OC(n3ccc(=O)[nH]c3=O)C2O[Si](C)(C)C(C)(C)C)no1 (centres undefined) | > 200 µM | 6.61 µM | – |
| CCc1cccc(C)c1NC(=O)C1=C(C)NC(C)=C(C(=O)Nc2c(C)cccc2CC)C1c1ccc2c(c1)OCO2 | > 24.5 µM | > 24.5 µM | – |
| CC(=O)Oc1cc(C(F)(F)F)ccc1C(=O)OC1(C)OC(=O)c2ccc(C(F)(F)F)cc2O1 (centres undefined) | > 200 µM | 41.7 µM | – |
| COc1ccc2cc1Oc1cc3c(cc1OC)CC[N+](C)(C)C3Cc1ccc(cc1)Oc1c(OC)c(OC)cc3c1C(C2)[N+](C)(C)CC3 (centres undefined) | > 200 µM | > 200 µM | – |
| CC(C)(C)CC(C)(C)SSc1n[nH]c(=S)s1 | > 200 µM | 17.4 µM | – |
| O=[N+]([O-])c1ccc(Nc2nnc(-c3ccc(Cl)cc3Cl)s2)cc1 | – | – | inactive |
| C1=C(c2ccccc2)Nc2ccccc2N=C1c1ccccc1 | > 200 µM | > 200 µM | – |
| Cc1ccc(NC2=CC(=O)C(NO)c3ccccc32)cc1 (centres undefined) | > 200 µM | 3.89 µM | – |
| OC1CCOc2ccccc21 (centres undefined) | > 200 µM | > 200 µM | – |
| O=[N+]([O-])c1ccc(S(=O)(=O)N/N=C/c2cccc3ccccc23)cc1 | > 51.3 µM | > 51.3 µM | – |
| COc1cc2c(cc1OC)NC(=O)CC(=O)N2 | > 200 µM | > 200 µM | – |
| c1ccc(OCC2CO2)c(OCC2CO2)c1 (centres undefined) | > 1120 µM | 3.98 µM | – |
| CC(=O)O[C@H]1C[C@@H]2OC3C=C(C)CCC3(C)[C@@]1(C)[C@@]21CO1 (some centres undefined) | > 2 µM | 0.105 µM | – |
| Nc1ncc(/C=C/CNC(=O)c2ccc[nH]2)[nH]1 | > 1070 µM | 155 µM | – |

| SMILES | EC50 | IC50 | outcome |
| --- | --- | --- | --- |
| COC(=O)C1CC23CCCN4CCC5(c6ccccc6N(C=O)C15CC2)C43 (centres undefined) | > 70.8 µM | > 70.8 µM | – |
| O=C(NCCc1c[nH]c2ccccc12)C1CC1 | > 200 µM | 110 µM | – |
| CC(=O)C1=C(O)C2C3c4c[nH]c5cccc(c45)CC3C(C)(C)N2C1=O (centres undefined) | – | – | inactive |
| Cc1cnc2c(Nc3ccc(Cl)cc3)cc(N)nc2n1 | > 120 µM | 4.47 µM | – |
| N#CSC#Cc1ccc(C#CSC#N)cc1 | > 200 µM | 2.4 µM | – |
| COc1c(O)c(C=O)c2c(O)c(-c3c(C)cc4c(C(C)C)c(OC)c(O)c(C=O)c4c3O)c(C)cc2c1C(C)C | > 151 µM | 2.57 µM | – |
| COc1ccc(/C(C)=C2\CCCN(Cc3ccccc3)C2)cc1 | > 200 µM | 30.9 µM | – |
| O=C(O)c1ccc(CS(=O)(=O)c2ccc(Cl)cc2)cc1 | > 794 µM | > 794 µM | – |
| Cc1ccc2n(c1)cc(-c1ccc(/C=N/NC(=N)N/N=C/c3ccc(-c4cn5cc(C)ccc5[n+]4C)cc3)cc1)[n+]2C | 15.5 µM | 49 µM | – |
| O=C1/C(=C/c2ccccc2)CN(C(=O)CCN2CCOCC2)C/C1=C\c1ccccc1 | > 79.4 µM | 0.525 µM | – |
| CC1=Nc2ccccc2S/C1=C(/C)NNC(=O)C(N)=O | > 89.1 µM | > 89.1 µM | – |
| c1cc2cc(c1)CNCCNCCNCc1cccc(c1)CNCCNCCNC2 | > 138 µM | 60.3 µM | – |
| Nc1nc(NC(=O)C2=NS(=O)(=O)c3cc(S(N)(=O)=O)c(Cl)cc3N2)n[nH]1 | 331 µM | 380 µM | – |
| CC(C)(C)c1ccc(SSc2ccc(C(C)(C)C)cc2)cc1 | > 200 µM | 12.3 µM | – |
| O=c1c(-c2ccccc2)c(S)sc(S)c1-c1ccccc1 | > 200 µM | > 200 µM | – |
| Nc1ccc2ccccc2c1N=Nc1ccc(/C=C/c2ccc(N=Nc3c(N)ccc4ccccc34)cc2S(=O)(=O)O)c(S(=O)(=O)O)c1 | 63.1 µM | 115 µM | – |
| Nc1ncnc2oc(-c3ccccc3)nc12 | > 195 µM | > 195 µM | – |
| O/N=C1\CCc2cc3c(cc21)CCC3 | > 200 µM | 155 µM | – |
| CC(=O)OCC1OC(n2cc(F)c(=O)[nH]c2=O)C(NC(=O)N(CCCl)N=O)C(OC(C)=O)C1OC(C)=O (centres undefined) | > 457 µM | 66.1 µM | – |
| C=CCCC12CCCC(=O)C1Sc1ccc3ccccc3c12 (centres undefined) | > 12.3 µM | > 12.3 µM | – |
| O=C(CCCl)Nc1c(Cl)cccc1Cl | – | – | inactive |
| C=CCn1c(=O)c(-c2ccccc2)c(O)c2ccccc21 | > 200 µM | > 200 µM | – |
| Cc1cn([C@@H]2C[C@](C)(CO)N(C)O2)c(=O)[nH]c1=O | > 200 µM | > 200 µM | – |

| SMILES | EC50 | IC50 | outcome |
| --- | --- | --- | --- |
| C/C(C=O)=C\c1ccc([N+](=O)[O-])cc1 | > 135 µM | 75.9 µM | – |
| COc1nc2c(nc(N)n2C2OC(CO)C(O)C(O)C2O)c(=O)n1C (centres undefined) | – | – | inactive |
| Cc1ccc(NC2=CC(=O)C(=O)c3ccccc32)cc1 | > 27.5 µM | 20.4 µM | – |
| CCC12C=CCN3CC[C@]4(C(=C(C(=O)OC)[C@@H]1Nc1ncnc5c1ncn5C1OC(COC(C)=O)C(OC(C)=O)C1OC(C)=O)Nc1ccccc14)C32 (some centres undefined) | > 13.8 µM | 7.76 µM | – |
| O=[N+]([O-])O[C@H]1CO[C@H]2[C@@H]1OC[C@H]2O[N+](=O)[O-] | > 200 µM | > 200 µM | – |
| Cc1cccc([P+](Cc2ccccc2)(c2cccc(C)c2)c2cccc(C)c2)c1 | > 200 µM | 0.589 µM | – |
| COc1ccc([C@H]2CC(=O)C[C@H](c3ccc(OC)cc3)C23C(=O)c2ccccc2C3=O)cc1 | > 200 µM | 2.63 µM | – |
| Cc1cc(C)c2c(c1)CC1(Cc3ccc(C)c(C)c3C1=O)C2=O (centres undefined) | > 100 µM | > 100 µM | – |
| CC1(C)c2ccccc2C(=O)C12CCC(=O)CC2 | > 200 µM | > 200 µM | – |
| O=C1OCCC1(Cc1ccc(Cl)cc1)Cc1ccc(Cl)cc1 | > 29.5 µM | > 29.5 µM | – |
| Cc1ccc(N=NC2Sc3nc4ccccc4n3C2=O)cc1 (centres undefined) | > 200 µM | > 200 µM | – |
| O=C(O)CCC(=O)NNC(=O)CCC(=O)O | > 155 µM | > 155 µM | – |
| O=C(O)c1cc2cc(Br)ccc2cc1O | > 200 µM | 85.1 µM | – |
| N#CC1(c2ccccc2)CCOCC1 | > 501 µM | > 501 µM | – |
| COC1OC(C)C(NC(=O)OCC(Cl)(Cl)Cl)C2OC(C)(C)OC12 (centres undefined) | > 331 µM | > 331 µM | – |
| Cc1nnc2sc(NN)nn12 | > 200 µM | 107 µM | – |
| Cc1c(S(=O)(=O)c2ccccc2)c(N)n(CCN(C)C)c1C | > 200 µM | 44.7 µM | – |
| O=C1Cc2c(-c3ccccc3)cc(-c3ccc(Cl)cc3)nc2-c2ccccc2N1 | > 200 µM | 93.3 µM | – |
| O=c1[nH]c(=O)n(C2C=CC(CO)O2)cc1C(OCC(F)(F)F)OCC(F)(F)F (centres undefined) | > 141 µM | 72.4 µM | – |
| C(=Nc1cnc2ccccc2c1)c1cccnc1 | > 1070 µM | 195 µM | – |
| [N-]=[N+]=NC12CC3CC(CC(C3)C1)C2 | > 380 µM | > 380 µM | – |
